Test results taken from the supplement of paper PMC4862054.

What was measured:
Experiment in all cases: drug sensitivity score (DSS), CellTox Green (DSS (AUC-based score)); higher = stronger drug effect (viability inhibition or cytotoxicity); extreme values may be limits of the assay
Conditions in all cases: incubation time: 72 h
BT-549 = test system: BT-549
In short: (§1)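 Normalisation on every plate relied on 0.1 % DMSO and a positive kill control. The plates, 384-well format, held compound at 5 concentrations 10-fold apart across a compound-specific 10,000-fold range, and breast cancer cell lines in 20 µl suspension were incubated on them for 72 h before CellTox Green and then CellTiter-Glo readings. The drug sensitivity score derives from the area under the fitted dose-response curve.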

Hs578T = test system: Hs578T
In short: as §1

CAL-51 = test system: CAL-51
In short: as §1

CAL-148 = test system: CAL-148
In short: as §1

CAL-85-1 = test system: CAL-85-1
In short: as §1

HCC1599 = test system: HCC1599
In short: as §1

CAL-120 = test system: CAL-120
In short: as §1

HCC1143 = test system: HCC1143
In short: as §1

MDA-MB-468 = test system: MDA-MB-468
In short: as §1

MCF-10A = test system: MCF-10A
In short: as §1

SMILES	drug sensitivity score (BT-549)	drug sensitivity score (Hs578T)	drug sensitivity score (CAL-51)	drug sensitivity score (CAL-148)	drug sensitivity score (CAL-85-1)	drug sensitivity score (HCC1599)	drug sensitivity score (CAL-120)	drug sensitivity score (HCC1143)	drug sensitivity score (MDA-MB-468)	drug sensitivity score (MCF-10A)
CC(=O)O[C@@]12CO[C@@H]1C[C@H](O)[C@@]1(C)C(=O)[C@H](O)C3=C(C)[C@@H](OC(=O)[C@H](O)[C@@H](NC(=O)OC(C)(C)C)c4ccccc4)C[C@@](O)([C@@H](OC(=O)c4ccccc4)[C@H]21)C3(C)C [Docetaxel]	11.4	19.2	26.2	0	25.5	0	0.904	5.08	0	19.1
O=NN(CCCl)C(=O)NCCCl [Carmustine]	0	0	0	0	0	0	0	0	0	0
C[C@]1(O)C[C@@H](c2nc(-c3ccc4ccc(-c5ccccc5)nc4c3)c3c(N)nccn32)C1 [Linsitinib]	0	2.22	0	0	0	0	0	0	0	0
Oc1ncnc2[nH]ncc12 [Allopurinol]	0	0	0	0	0.422	0	0	0	0	0
